Data reported in patent US10047068B2, “Optical resolution method of lenalidomide” (Shiseido Company, Ltd, priority 2014, dated 2018).

Assays:
[1] = Stability of lenalidomide in different solvents; type: physicochemical; settings: 0.5 mg/mL racemic mixture, room temperature or 50° C., 24 hours
[2] = Dependence of racemization half-life on pH in aqueous buffers at room temperature; type: physicochemical
Method: In order to elucidate the racemization half-life of lenalidomide and its pH dependence, an experiment was conducted with the following scheme and HPLC conditions.
The enantiomeric excess rate (EE, [(S−R)/(S+R)×100], %) at each point is plotted in FIG. 7, and the log10 (EE) vs. time plot is shown in FIG. 8.
This linearity was used to calculate the time for EE=50 based on a straight line approximation (y=ax+b), to determine the racemization half-life. The stability of the pure enantiomer is very highly dependent on pH, the half-life being 10 times longer for every pH reduction of 1, and estimation of the half-life was no longer possible at pH 4. At pH 9, on the other hand, sudden racemization and decomposition were observed.

[3] = NPL 11; cited from earlier work
[4] = Racemization half-life in human serum (37° C.); settings: for racemization half-life in serum, times longer than the corresponding TD enantiomer: human serum, 37° C.
Description: The analysis method of the invention is shown as scheme (b). The acid used to suspend the reaction while simultaneously precipitating and removing the protein was HClO4.

[5] = Na-phosphate buffer pH 7.4, 37° C., average of 3 tests ± SD

Question: What does the source list for `Nc1cccc2c1CN(C1CCC(=O)NC1=O)C2=O` (racemic) [lenalidomide, Lenalidomide]?
Answer: stability in solvent (enantiomer peak areas before and after incubation) ([1]; acetonitrile): no decomposition was observed; stability in solvent (enantiomer peak areas before and after incubation) ([1]; ethanol): highly unstable; stability in solvent (enantiomer peak areas before and after incubation) ([1]; ethyl acetate): no decomposition was observed; stability in solvent (enantiomer peak areas before and after incubation) ([1]; isopropanol): stable; stability in solvent (enantiomer peak areas before and after incubation) ([1]; methanol): highly unstable; racemization and decomposition in aqueous buffer (peak areas) ([2]; pH 9 and 8, room temperature): racemization and decomposition of LL takes place

Question: For `O=C1CCC(N2C(=O)c3ccccc3C2=O)C(=O)N1` (racemic) [thalidomide], which excretion half-life [3] is on record?
Answer: 8.7 h

Question: Which results are given for `Nc1cccc2c1CN(C1CCC(=O)NC1=O)C2=O` (single isomer, unassigned) [(R*)-LL]?
Answer: racemization half-life in serum, times longer than the corresponding TD enantiomer [4]: 3 times; racemization half-life in human serum [4]: 1.82 ± 0.0333 h; racemization half-life in aqueous buffer [5]: 4.45 ± 0.0183 h

Question: Which results are given for `Nc1cccc2c1CN(C1CCC(=O)NC1=O)C2=O` (single isomer, unassigned) [(S*)-LL]?
Answer: racemization on incubation in aqueous buffer ([2]; pH 6, room temperature): small amount of (R*)-LL was produced; racemization on incubation in aqueous buffer ([2]; pH 7 and higher, room temperature): racemization was significantly accelerated; racemization half-life in serum, times longer than the corresponding TD enantiomer [4]: 6 times; racemization half-life in human serum [4]: 2.18 ± 0.0817 h; racemization half-life in aqueous buffer [5]: 4.53 ± 0.0217 h
